These results are taken from patent US7727736B2, “Soluble phospholipids for use in clotting factor assays” (The University of North Carolina at Chapel Hill, priority 2003, dated 2010).

The structures appear in SMILES notation.

Assay [1] deals with T1, factor Xa binding to factor Va2 (Homo sapiens, UniProt P00742+P12259).
T1 construct: Human prothrombin and factor Xa; tissue Hematologic Technologies Inc. (factor Xa only); factor Xa purchased
Nature of the assay: Prothrombinase assembly monitored by initial rate of thrombin formation (DAPA fluorescence, stopped flow), FVa2. The assay is classed as biochemical. Conditions: in presence of 400 μM C6PS. How it is done:
The initial rate of thrombin formation was monitored by DAPA fluorescence. Stopped flow fluorescence measurements were performed at 37° C. with final mixing chamber concentrations of 1 μM prothrombin, 5 μM DAPA, 1 nM factor Xa, 400 μM C6PS and various concentrations of factor Va2 (Panel A) or Va1 (Panel B) in 50 mM Tris-HCl (pH 7.5), 150 mM NaCl, 5 mM CaCl2. The initial rates were fit to a single binding site model as described herein to determine the Kd^eff of factor Xa binding to factor Va2 in presence of 400 μM C6PS (2.4±0.3 nM). […] The abrupt appearance of aggregates at 700 μM C6PS defines the critical micelle concentration under these experimental conditions.
Fluorescence Stopped-Flow Measurements. The rates of thrombin formation from either MzIIa or Pre2 (with equimolar fragment 1.2), or of thrombin plus MzIIa formation from human prothrombin, were estimated from the time-dependent fluorescence change of DAPA bound to the activation products. […] The calculation of rates from measurements of initial fluorescence intensity (F0) and intensity at the completion of the reaction (F∞) is well-established (Nesheim and Mann (1983) supra; Wu, et al. (2002) supra).
Initial rates of prothrombin activation by FXa as monitored by DAPA fluorescence are shown in FIG. 2 as a function of added FVa2 (Panel A) and FVa1 (Panel B) in the presence of 400 μM C6PS. […]

The target in the next assay is T2, FXa•FVa2 complex (Homo sapiens, UniProt P00742+P12259).
T2 construct: Human prothrombin and factor Xa; tissue Hematologic Technologies Inc. (factor Xa only); factor Xa purchased
Nature of the assay: Native gel electrophoresis (Ferguson analysis), C6PS bound to FXa•FVa2 complex. The assay is classed as binding. As to the method:
A mixture of FXa and FVa2 in the absence (lane 1 of gel) and presence (lane 2) of 400 μM C6PS (5 mM Ca^2+) was analyzed by native polyacrylamide gel electrophoresis on a standard 6% gel (Majumder, et al. (2002) supra). A log-log plot of retardation coefficients versus molecular mass of different reference proteins is also shown (open circles). Points have been added to this plot for retardation coefficients obtained for FXa (triangle) or FVa2 (4-point star) in the absence of C6PS, and of the FXa•FVa2 complex (5-point star) formed in the presence of C6PS. The apparent molecular weight of the complex, as identified from this plot, was 224±3.7 kilodaltons.
Native Gel Electrophoresis. This method has been used to document the association of blood coagulation proteins in solution (Majumder, et al. (2002) supra; Majumder, et al. (2003) supra). […] Protein retardation coefficients, which depend to a good approximation only on the hydrodynamic size and shape of the protein, were determined for both the marker and unknown proteins (Ferguson (1964) Metabolism 13:985-1002). A log-log plot of the retardation coefficient against the molecular weights of the marker proteins produced a linear curve from which the molecular weight of the FVa•FXa complex was determined from its measured retardation coefficient (Bryan (1977) Anal. Biochem. 78(2):513-9). […]

Another assay has as its target FXa (Homo sapiens, UniProt P00742). The settings on record: equilibrium dialysis; cited from earlier work.

T2 sequence (P00742 41-179 limits assumed): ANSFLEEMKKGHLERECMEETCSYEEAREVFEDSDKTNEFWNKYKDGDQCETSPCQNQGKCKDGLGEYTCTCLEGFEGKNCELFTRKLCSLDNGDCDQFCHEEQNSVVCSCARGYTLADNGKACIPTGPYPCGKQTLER
T2 sequence (P00742 235-488 limits assumed): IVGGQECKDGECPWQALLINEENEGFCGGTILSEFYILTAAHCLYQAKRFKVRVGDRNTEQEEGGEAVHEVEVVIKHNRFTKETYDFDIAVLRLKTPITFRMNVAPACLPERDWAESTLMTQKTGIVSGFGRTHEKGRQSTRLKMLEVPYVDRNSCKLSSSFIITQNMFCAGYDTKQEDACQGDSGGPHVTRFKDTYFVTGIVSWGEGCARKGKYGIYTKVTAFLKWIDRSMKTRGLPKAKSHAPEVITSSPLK
T2 sequence (P12259 29-737 limits assumed): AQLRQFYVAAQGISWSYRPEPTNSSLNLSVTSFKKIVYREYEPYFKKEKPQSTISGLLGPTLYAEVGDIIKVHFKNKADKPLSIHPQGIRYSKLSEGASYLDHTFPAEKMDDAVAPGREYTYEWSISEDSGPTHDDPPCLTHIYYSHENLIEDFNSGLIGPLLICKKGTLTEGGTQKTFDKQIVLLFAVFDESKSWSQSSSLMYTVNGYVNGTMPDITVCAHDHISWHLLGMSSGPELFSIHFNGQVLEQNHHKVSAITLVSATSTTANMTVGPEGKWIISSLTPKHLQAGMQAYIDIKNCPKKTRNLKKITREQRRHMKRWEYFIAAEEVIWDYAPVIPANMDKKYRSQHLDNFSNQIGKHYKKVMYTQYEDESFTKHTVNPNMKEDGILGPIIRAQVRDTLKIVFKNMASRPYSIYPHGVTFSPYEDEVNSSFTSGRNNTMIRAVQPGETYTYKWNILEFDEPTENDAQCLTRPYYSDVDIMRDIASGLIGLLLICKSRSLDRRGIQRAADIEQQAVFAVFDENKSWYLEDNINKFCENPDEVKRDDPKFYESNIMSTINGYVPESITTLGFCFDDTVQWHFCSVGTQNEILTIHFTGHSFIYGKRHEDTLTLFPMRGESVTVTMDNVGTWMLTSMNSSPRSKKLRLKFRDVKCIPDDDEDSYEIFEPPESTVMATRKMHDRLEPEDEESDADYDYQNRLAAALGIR
T2 sequence (P12259 1574-2224 limits assumed): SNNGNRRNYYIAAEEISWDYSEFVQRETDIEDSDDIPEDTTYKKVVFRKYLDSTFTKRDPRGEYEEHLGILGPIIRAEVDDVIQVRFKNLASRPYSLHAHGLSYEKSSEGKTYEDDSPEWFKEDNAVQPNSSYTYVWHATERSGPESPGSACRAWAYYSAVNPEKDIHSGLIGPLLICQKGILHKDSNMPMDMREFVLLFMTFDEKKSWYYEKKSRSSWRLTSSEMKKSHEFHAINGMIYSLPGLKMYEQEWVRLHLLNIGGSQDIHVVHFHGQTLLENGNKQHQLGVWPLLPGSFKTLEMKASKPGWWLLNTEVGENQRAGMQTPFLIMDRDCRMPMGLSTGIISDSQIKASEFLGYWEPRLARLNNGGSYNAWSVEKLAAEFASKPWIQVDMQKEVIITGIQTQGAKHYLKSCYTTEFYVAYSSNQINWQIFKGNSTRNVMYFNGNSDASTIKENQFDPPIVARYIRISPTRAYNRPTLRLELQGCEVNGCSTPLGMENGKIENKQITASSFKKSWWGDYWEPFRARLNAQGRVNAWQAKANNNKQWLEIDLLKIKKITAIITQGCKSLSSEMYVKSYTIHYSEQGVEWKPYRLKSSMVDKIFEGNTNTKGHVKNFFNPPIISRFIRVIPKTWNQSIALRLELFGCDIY
T1 sequence (P00742 41-179 limits assumed): as the sequence (P00742 41-179 limits assumed) above
T1 sequence (P00742 235-488 limits assumed): as the sequence (P00742 235-488 limits assumed) above
T1 sequence (P12259 29-737 limits assumed): as the sequence (P12259 29-737 limits assumed) above
T1 sequence (P12259 1574-2224 limits assumed): as the sequence (P12259 1574-2224 limits assumed) above
Sequence of FXa (P00742 41-179 limits assumed): as the sequence (P00742 41-179 limits assumed) above
Sequence of FXa (P00742 235-488 limits assumed): as the sequence (P00742 235-488 limits assumed) above

Take `CCCCCC(=O)OC[C@H](COP(=O)(O)OC[C@H](N)C(=O)O)OC(=O)CCCCC` [C6PS, 1,2-dicaproyl-sn-glycero-3-phospho-L-serine]: in assay [1], the “fold tighter FVa2 interaction with FXa than FVa1” value was “at least 300 fold”. At FXa•FVa2 complex (400 μM C6PS), the “C6PS in stoichiometry Xa:Va2:C6PS of the complex from molecular mass” value was 3.4±7.7. Also, on FXa•FVa2 complex (based on equilibrium dialysis stoichiometries), the “most likely number of C6PS molecules bound to the complex” value is 5-6 molecules. In addition, the “stoichiometry of C6PS binding to FXa at saturation” value at FXa is given as 2.
